Experiments:
Format in all cases: in vivo
[1] = tested on: Alopecurus myosuroides (ALOMY); experiment: Pre-emergence herbicidal glasshouse test on Alopecurus myosuroides; conditions: pre-emergence; 1000 g/h; evaluated after 13 days
In short: (§1)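 Application rate 1000 g/h, formulated in acetone/water (50:50) with 0.5% Tween 20 and sprayed onto pots sown 1 day (pre-emergence) or 8 days (post-emergence) earlier. Evaluation at 13 days rated damage from 1 (0-19%) to 5 (80-100%).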

[2] = tested on: Setaria faberi (SETFA); experiment: Pre-emergence herbicidal glasshouse test on Setaria faberi; conditions: pre-emergence; 1000 g/h; evaluated after 13 days
In short: as §1

[3] = tested on: Echinochloa crus-galli (ECHCG); experiment: Pre-emergence herbicidal glasshouse test on Echinochloa crus-galli; conditions: pre-emergence; 1000 g/h; evaluated after 13 days
In short: as §1

[4] = tested on: Solanum nigrum (SOLNI); experiment: Pre-emergence herbicidal glasshouse test on Solanum nigrum; conditions: pre-emergence; 1000 g/h; evaluated after 13 days
In short: as §1

[5] = tested on: Amaranthus retoflexus (AMARE); experiment: Pre-emergence herbicidal glasshouse test on Amaranthus retoflexus; conditions: pre-emergence; 1000 g/h; evaluated after 13 days
In short: as §1

[6] = tested on: Ipomoea hederacea (IPOHE); experiment: Pre-emergence herbicidal glasshouse test on Ipomoea hederacea; conditions: pre-emergence; 1000 g/h; evaluated after 13 days
In short: as §1

[7] = tested on: Alopecurus myosuroides (ALOMY); experiment: Post-emergence herbicidal glasshouse test on Alopecurus myosuroides; conditions: post-emergence; 1000 g/h; evaluated after 13 days
In short: as §1

[8] = tested on: Setaria faberi (SETFA); experiment: Post-emergence herbicidal glasshouse test on Setaria faberi; conditions: post-emergence; 1000 g/h; evaluated after 13 days
In short: as §1

[9] = tested on: Echinochloa crus-galli (ECHCG); experiment: Post-emergence herbicidal glasshouse test on Echinochloa crus-galli; conditions: post-emergence; 1000 g/h; evaluated after 13 days
In short: as §1

[10] = tested on: Solanum nigrum (SOLNI); experiment: Post-emergence herbicidal glasshouse test on Solanum nigrum; conditions: post-emergence; 1000 g/h; evaluated after 13 days
In short: as §1

[11] = tested on: Amaranthus retoflexus (AMARE); experiment: Post-emergence herbicidal glasshouse test on Amaranthus retoflexus; conditions: post-emergence; 1000 g/h; evaluated after 13 days
In short: as §1

[12] = tested on: Ipomoea hederacea (IPOHE); experiment: Post-emergence herbicidal glasshouse test on Ipomoea hederacea; conditions: post-emergence; 1000 g/h; evaluated after 13 days
In short: as §1

| SMILES | PRE Application ALOMY herbicidal damage (five point scale) [1] | PRE Application SETFA herbicidal damage (five point scale) [2] | PRE Application ECHCG herbicidal damage (five point scale) [3] | PRE Application SOLNI herbicidal damage (five point scale) [4] | PRE Application AMARE herbicidal damage (five point scale) [5] | PRE Application IPOHE herbicidal damage (five point scale) [6] | POST Application ALOMY herbicidal damage (five point scale) [7] | POST Application SETFA herbicidal damage (five point scale) [8] | POST Application ECHCG herbicidal damage (five point scale) [9] | POST Application SOLNI herbicidal damage (five point scale) [10] | POST Application AMARE herbicidal damage (five point scale) [11] | POST Application IPOHE herbicidal damage (five point scale) [12] |
| --- | --- | --- | --- | --- | --- | --- | --- | --- | --- | --- | --- | --- |
| COc1ccc(Cl)c(-c2cnn(C)c(=O)c2O)c1 [Compound 1.090] | 1 (1=0-19% damage) | 1 (1=0-19% damage) | 1 (1=0-19% damage) | 1 (1=0-19% damage) | 1 (1=0-19% damage) | 1 (1=0-19% damage) | 1 (1=0-19% damage) | 1 (1=0-19% damage) | 1 (1=0-19% damage) | 2 (2=20-39% damage) | 1 (1=0-19% damage) | 1 (1=0-19% damage) |
| Cn1ncc(-c2ccc(Cl)c(Cl)c2Cl)c(O)c1=O [Compound 1.091] | 1 (1=0-19% damage) | 1 (1=0-19% damage) | 1 (1=0-19% damage) | 1 (1=0-19% damage) | 1 (1=0-19% damage) | 1 (1=0-19% damage) | 1 (1=0-19% damage) | 1 (1=0-19% damage) | 1 (1=0-19% damage) | 2 (2=20-39% damage) | 1 (1=0-19% damage) | 1 (1=0-19% damage) |
| Cn1ncc(-c2ccc(Cl)c(F)c2Cl)c(O)c1=O [Compound 1.092] | 1 (1=0-19% damage) | 1 (1=0-19% damage) | 1 (1=0-19% damage) | 1 (1=0-19% damage) | 1 (1=0-19% damage) | 1 (1=0-19% damage) | 1 (1=0-19% damage) | 1 (1=0-19% damage) | 1 (1=0-19% damage) | 2 (2=20-39% damage) | 1 (1=0-19% damage) | 2 (2=20-39% damage) |
| Cc1cc(F)ccc1-c1cnn(C)c(=O)c1O [Compound 1.093] | 1 (1=0-19% damage) | 1 (1=0-19% damage) | 1 (1=0-19% damage) | 1 (1=0-19% damage) | 1 (1=0-19% damage) | 1 (1=0-19% damage) | 1 (1=0-19% damage) | 1 (1=0-19% damage) | 1 (1=0-19% damage) | 2 (2=20-39% damage) | 1 (1=0-19% damage) | 1 (1=0-19% damage) |
| Cc1ccc(F)cc1-c1cnn(C)c(=O)c1O [Compound 1.094] | 1 (1=0-19% damage) | 1 (1=0-19% damage) | 1 (1=0-19% damage) | 1 (1=0-19% damage) | 1 (1=0-19% damage) | 1 (1=0-19% damage) | 1 (1=0-19% damage) | 1 (1=0-19% damage) | 1 (1=0-19% damage) | 2 (2=20-39% damage) | 1 (1=0-19% damage) | 1 (1=0-19% damage) |
| Cn1ncc(-c2cccc3ccccc23)c(O)c1=O [Compound 1.095] | 1 (1=0-19% damage) | 1 (1=0-19% damage) | 1 (1=0-19% damage) | 1 (1=0-19% damage) | 1 (1=0-19% damage) | 1 (1=0-19% damage) | 1 (1=0-19% damage) | 1 (1=0-19% damage) | 1 (1=0-19% damage) | 1 (1=0-19% damage) | 1 (1=0-19% damage) | 1 (1=0-19% damage) |
| Cn1ncc(-c2cc(C(F)(F)F)ccc2F)c(O)c1=O [Compound 1.096] | 1 (1=0-19% damage) | 1 (1=0-19% damage) | 1 (1=0-19% damage) | 1 (1=0-19% damage) | 1 (1=0-19% damage) | 1 (1=0-19% damage) | 1 (1=0-19% damage) | 1 (1=0-19% damage) | 1 (1=0-19% damage) | 1 (1=0-19% damage) | 1 (1=0-19% damage) | 2 (2=20-39% damage) |
| Cc1ccc(-c2cnn(C)c(=O)c2O)c(Cl)c1 [Compound 1.098] | 1 (1=0-19% damage) | 1 (1=0-19% damage) | 1 (1=0-19% damage) | 1 (1=0-19% damage) | 1 (1=0-19% damage) | 1 (1=0-19% damage) | 1 (1=0-19% damage) | 1 (1=0-19% damage) | 1 (1=0-19% damage) | 3 (3=40-59% damage) | 2 (2=20-39% damage) | 2 (2=20-39% damage) |
| Cn1ncc(-c2cc(Cl)ccc2Cl)c(O)c1=O [Compound 1.099] | 1 (1=0-19% damage) | 1 (1=0-19% damage) | 1 (1=0-19% damage) | 1 (1=0-19% damage) | 1 (1=0-19% damage) | 1 (1=0-19% damage) | 1 (1=0-19% damage) | 1 (1=0-19% damage) | 1 (1=0-19% damage) | 2 (2=20-39% damage) | 3 (3=40-59% damage) | 2 (2=20-39% damage) |
